The values below are quoted from earlier work in patent US20070099846A1, “Composition containing dipeptide of histidine and alanine for reducing uric acid and method for reducing uric acid using the dipeptide” (LYTONE ENTERPRISE, INC., priority 2003, published 2007).

In this data set the test system is peptidase and proteases excreted from pancreas or other digestive organs.

Each structure is given as a SMILES string.

For `NCCC(=O)N[C@@H](Cc1cnc[nH]1)C(=O)O` [carnosine, β-alanyl-L-histidine], the “Resistance against digestion by peptidase and proteases” value is “resist against digestion”.
